PubChem BioAssay AID1963839 (Molecular Pharmacology Branch, DTP, NCI, 2024)

Tested on: 817829-284-R-J1-PDC complex spheroid viability
Experiment: Anticancer human tumor 817829-284-R-J1-PDC patient-derived colon adenocarcinoma cell line growth inhibition [POLQ]
Settings: for IC50: curve of first compound; for viability, T/C: stronger effect = lower value
Protocol: Multicellular complex tumor spheroid response to Polymerase (POL) inhibitors (novobiocin, ART-558, RP6685) in combination with a variety of drugs and investigational agents in selected tumor cell lines
The POL inhibitors (novobiocin, ART-558, and RP6685) were evaluated both individually and in combination with standard of care and investigational anticancer small molecules within a complex spheroid model of solid tumors. . Complex spheroids include a stromal component modeled by human endothelial cells (HUVEC) and fibroblasts modeled by human mesenchymal stem cells (MSCs). The concentration ranges selected for each drug and investigational agent were based upon clinically achievable concentrations if the clinical Cmax of the agent was known.
Compounds. The drugs and investigational agents: novobiocin (NSC847541), ART-558 (NSC835418), RP-6685 (NSC848927), peposertib (NSC802822), ceralasertib (NSC780249), elimusertib (NSC800525), camonsertib (NSC841442), AZD-1390 (NSC803789), olaparib (NSC753686), talazoparib (NSC767125), rucaparib (NSC756644), sotorasib (NSC818433), MRTX-1133 (NSC836407), SN-38 (NSC673596), topotecan (NSC609699), epotoside (NSC141540), doxorubicin (NSC123127), gemcitabine (NSC613327), 5-fluorouracil (NSC19893), paclitaxel (NSC125973), vemurafenib (NSC761431), MSA-2 (NSC828583), SN-011 (NSC837082), adavosertib (NSC754352), prexasertib (NSC758257), carboplatin (NSC241240) and oxaliplatin (NSC266046), were obtained from the National Cancer Institute (NCI) Developmental Therapeutics Program Chemical Repository (21). The FDA-approved anticancer drug set is available from the Developmental Therapeutics Program at https://dtp.cancer.gov/organization/dscb/obtaining/. […] The stock solutions were prepared in dimethyl sulfoxide (DMSO, Sigma-Aldrich, St. Louis, MO, cat. D2650), except for the platinum compounds which were prepared in saline (Quality Biological, Gaithersburg, MD, cat. 114-055-101), at 800-fold the tested concentration and stored at -70 degrees C prior to their use. All drugs and investigational agents were tested over a range starting from a high concentration at or near the clinical Cmax and decreasing in half-log increments. If the clinical Cmax for an agent had not been determined, the highest concentration tested was 10 microM, except for SN-38, which was tested at a high concentration of 1 microM.
Cell Culture. All cells were maintained in an incubator at 37 degrees C and 5% CO2 with 95% humidity. The PDC lines were cultured according to standard operating procedures established by the NCI PDMR (https://pdmr.cancer.gov). Table 3 of the manuscript, lists the cell lines along with the number of the three cell types plated to form the mct-spheroids and media for tumor cell growth. After thawing, all PDC lines, except 997537-175-T-J1-PDC and 415267-285-R-J2-PDC, were cultured in Matrigel-coated flasks prepared with a working solution of 1X Ham's F-12 nutrient mix, without supplementation (Thermo Fisher Scientific, cat. 11765054), 100 U/mL penicillin-streptomycin (Thermo Fisher Scientific, cat. 15140122), and 2.5% Matrigel (Corning Inc., Corning, NY, cat. 354248) for the first three passages. The two PDC lines 997537-175-T-J1-PDC and 415267-285-R-J2-PDC were cultured on uncoated flasks. The 857933-349-R-J2-PDC line was cultured in 6C/Colon 1B media containing advanced DMEM/F-12 (Thermo Fisher Scientific, cat. 12634028), 10 mM HEPES (Thermo Fisher Scientific, cat. 15630080), 1X GlutaMAX supplement (Thermo Fisher Scientific, cat. 35050061), 0.1 mg/mL primocin (InvivoGen, San Diego, CA, cat. ant-pm-2), 10% defined fetal bovine serum, heat inactivated (HyClone Laboratories Inc., Logan, UT, cat. SH30070.03HI), 50% L-WRN conditioned media (ATCC, cat. CRL-3276), 1.25 mM N-Acetyl-L-cysteine (Sigma-Aldrich, cat. A9165), 10 mM nicotinamide (Sigma-Aldrich, cat. N0636), 1X B-27 supplement (Thermo Fisher Scientific, cat. 17504044), 1X N-2 supplement (Thermo Fisher Scientific, cat. […]

[1] = second compound 0.0316 µM, first compound 0.0316 µM
[2] = second compound 0.0316 µM, first compound 0.1 µM
[3] = second compound 0.0316 µM, first compound 0.316 µM
[4] = second compound 0.0316 µM, first compound 1 µM
[5] = second compound 0.0316 µM, first compound 3.16 µM
[6] = second compound 0.0316 µM, first compound 10 µM
[7] = second compound 0.1 µM, first compound 0.0316 µM
[8] = second compound 0.1 µM, first compound 0.1 µM
[9] = second compound 0.1 µM, first compound 0.316 µM
[10] = second compound 0.1 µM, first compound 1 µM
[11] = second compound 0.1 µM, first compound 3.16 µM
[12] = second compound 0.1 µM, first compound 10 µM
[13] = second compound 0.316 µM, first compound 0.0316 µM
[14] = second compound 0.316 µM, first compound 0.1 µM
[15] = second compound 0.316 µM, first compound 0.316 µM
[16] = second compound 0.316 µM, first compound 1 µM
[17] = second compound 0.316 µM, first compound 3.16 µM
[18] = second compound 0.316 µM, first compound 10 µM
[19] = second compound 1 µM, first compound 0.0316 µM
[20] = second compound 1 µM, first compound 0.1 µM
[21] = second compound 1 µM, first compound 0.316 µM
[22] = second compound 1 µM, first compound 1 µM
[23] = second compound 1 µM, first compound 3.16 µM
[24] = second compound 1 µM, first compound 10 µM
[25] = second compound 3.16 µM, first compound 0.0316 µM
[26] = second compound 3.16 µM, first compound 0.1 µM
[27] = second compound 3.16 µM, first compound 0.316 µM
[28] = second compound 3.16 µM, first compound 1 µM
[29] = second compound 3.16 µM, first compound 3.16 µM
[30] = second compound 3.16 µM, first compound 10 µM
[31] = second compound 10 µM, first compound 0.0316 µM
[32] = second compound 10 µM, first compound 0.1 µM
[33] = second compound 10 µM, first compound 0.316 µM
[34] = second compound 10 µM, first compound 1 µM
[35] = second compound 10 µM, first compound 3.16 µM
[36] = second compound 10 µM, first compound 10 µM
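Note: spheroids exposed to compounds for 7 days.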
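Throughout, for viability, T/C: 100% = DMSO vehicle-treated spheroids.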

COc1cc(C2c3cc4c(cc3C(OC3OC5COC(C)OC5C(O)C3O)C3COC(=O)C23)OCO4)cc(OC)c1O (centres undefined) + COC1C(OC(N)=O)C(O)C(Oc2ccc3c(O)c(NC(=O)c4ccc(O)c(CC=C(C)C)c4)c(=O)oc3c2C)OC1(C)C
IC50 (second compound 0.0316 µM): < 31.6 nM
IC50 (second compound 0.1 µM): 62.2 nM
IC50 (second compound 0.316 µM): 38.7 nM
IC50 (second compound 1 µM): 77.8 nM
IC50 (second compound 3.16 µM): 74.9 nM
IC50 (second compound 10 µM): 61.4 nM
viability, T/C [1]: 47.9%
viability, T/C [2]: 31.3%
viability, T/C [3]: 16.2%
viability, T/C [4]: 14.4%
viability, T/C [5]: 11.2%
viability, T/C [6]: 5.8%
viability, T/C [7]: 74.1%
viability, T/C [8]: 31.2%
viability, T/C [9]: 19.5%
viability, T/C [10]: 19.1%
viability, T/C [11]: 11.8%
viability, T/C [12]: 6.51%
viability, T/C [13]: 53.6%
viability, T/C [14]: 34.5%
viability, T/C [15]: 15.2%
viability, T/C [16]: 15.6%
viability, T/C [17]: 12.6%
viability, T/C [18]: 6.15%
viability, T/C [19]: 79.2%
viability, T/C [20]: 42.2%
viability, T/C [21]: 15.8%
viability, T/C [22]: 16.3%
viability, T/C [23]: 11.7%
viability, T/C [24]: 6.63%
viability, T/C [25]: 83.7%
viability, T/C [26]: 38.8%
viability, T/C [27]: 18.1%
viability, T/C [28]: 19.1%
viability, T/C [29]: 13.6%
viability, T/C [30]: 6.38%
viability, T/C [31]: 68.8%
viability, T/C [32]: 36.6%
viability, T/C [33]: 17.9%
viability, T/C [34]: 20.1%
viability, T/C [35]: 11.6%
viability, T/C [36]: 6.29%

COc1cccc2c1C(=O)c1c(O)c3c(c(O)c1C2=O)CC(O)(C(=O)CO)CC3OC1CC(N)C(O)C(C)O1 (centres undefined) + COC1C(OC(N)=O)C(O)C(Oc2ccc3c(O)c(NC(=O)c4ccc(O)c(CC=C(C)C)c4)c(=O)oc3c2C)OC1(C)C
IC50 (second compound 0.0316 µM): 110 nM
IC50 (second compound 0.1 µM): < 31.6 nM
IC50 (second compound 0.316 µM): < 31.6 nM
IC50 (second compound 1 µM): 109 nM
IC50 (second compound 3.16 µM): 143 nM
IC50 (second compound 10 µM): < 31.6 nM
viability, T/C [1]: 17.6%
viability, T/C [2]: 90.5%
viability, T/C [3]: 5.53%
viability, T/C [4]: 1.37%
viability, T/C [5]: 0.16%
viability, T/C [6]: 0.52%
viability, T/C [7]: 16.5%
viability, T/C [8]: 75.1%
viability, T/C [9]: 6.74%
viability, T/C [10]: 0.41%
viability, T/C [11]: 0.25%
viability, T/C [12]: 0.49%
viability, T/C [13]: 14.3%
viability, T/C [14]: 82%
viability, T/C [15]: 7.31%
viability, T/C [16]: 0.98%
viability, T/C [17]: 0.19%
viability, T/C [18]: 0.45%
viability, T/C [19]: 22.7%
viability, T/C [20]: 84.3%
viability, T/C [21]: 6.03%
viability, T/C [22]: 1.44%
viability, T/C [23]: 0.19%
viability, T/C [24]: 0.51%
viability, T/C [25]: 21.1%
viability, T/C [26]: 119%
viability, T/C [27]: 6.03%
viability, T/C [28]: 0.63%
viability, T/C [29]: 0.27%
viability, T/C [30]: 0.51%
viability, T/C [31]: 15.7%
viability, T/C [32]: 83.3%
viability, T/C [33]: 5.98%
viability, T/C [34]: 0.49%
viability, T/C [35]: 0.31%
viability, T/C [36]: 0.47%
